Values of other authors, collected in US9198859B2, “Concentrated mast cell stabilizing pharmaceutical formulations” (PARI Pharma GMBH, priority 2009, dated 2015).

What was measured:
influenza virus = conditions: mice
[1] = tested on: respiratory syncytial virus; conditions: mice
[2] = 6 months; nebulized 3 times daily IsoCrom (20 mg/2 ml) via eFlow; children

In the case of O=C(O)c1cc(=O)c2c(OCC(O)COc3cccc4oc(C(=O)O)cc(=O)c34)cccc2o1 [DSCG, disodium cromoglycate], the “protection from death induced by influenza virus infection” value (influenza virus) is given as “protected mice from death”, the “protection against RSV induced illness” value [1] is given as “protected against respiratory syncytial virus induced illness” and the “therapeutic efficacy versus inhaled steroids” value [2] is given as “as effective as inhaled steroids”.
